Active and inactive are the calls of the source.
Assays:
3T3-L1 [1] = assay: Inhibition of adipogenesis in mouse 3T3-L1 cells assessed as downregulation of CEBPalpha expression at 10 uM measured at upto 3 days by immunoblotting analysis; format: functional, cell-based; settings: time <= 3.0 day
3T3-L1 [2] = assay: Anti-adipogenic activity in MDI-induced mouse 3T3-L1 cells assessed as suppression of adipogenesis at 0.3 uM by oil red O staining based analysis; format: functional, cell-based; settings: time 72.0 hrs
3T3-L1 [3] = assay: Cytotoxicity against mouse 3T3-L1 cells assessed as cell viability at 10 uM incubated for 48 hrs by MTT assay; format: toxicity, cell-based; settings: 3t3-l1, 48 h
[4] = MRT in Golden Syrian hamster at 100 mg/kg, po measured upto 24 hrs by LC-MS/MS analysis; format: ADME, organism-based, Mesocricetus auratus; settings: in vivo
[5] = Volume of distribution in Golden Syrian hamster at 100 mg/kg, po measured upto 24 hrs by LC-MS/MS analysis; format: ADME, organism-based, Mesocricetus auratus; settings: in vivo
Syrian golden hamster [6] = assay: Anti-dyslipidemic activity in HFD-induced Golden Syrian hamster model assessed as decrease in CEBPalpha level at 100 mg/kg, po administered for 7 days by Western blot analysis; format: functional, organism-based; settings: Mesocricetus auratus, time 7.0 day
3T3-L1 [7] = assay: Induction of cell cycle arrest in mouse 3T3-L1 cells assessed as reduction in CDK4 level at 10 uM incubated for 16 to 24 hrs by immunoblotting analysis; format: functional, cell-based; settings: time 16-24 hrs
3T3-L1 [8] = assay: Inhibition of adipogenesis in mouse 3T3-L1 cells assessed as downregulation of FABP4 expression at 10 uM measured at upto 3 days by immunoblotting analysis; format: functional, cell-based; settings: time <= 3.0 day
[9] = Toxicity in Golden Syrian hamster assessed as reduction in adipocyte hypertrophy at 100 mg/kg, po administered for 7 days; format: organism-based, Mesocricetus auratus; settings: in vivo, 168 h, time 7 day
[10] = Clearance in Golden Syrian hamster at 100 mg/kg, po measured upto 24 hrs by LC-MS/MS analysis; format: ADME, organism-based, Mesocricetus auratus; settings: in vivo
[11] = Toxicity in Golden Syrian hamster assessed as reduction in TC level in serum at 100 mg/kg, po administered for 7 days; format: organism-based, Mesocricetus auratus; settings: in vivo, 168 h, time 7 day
3T3-L1 [12] = assay: Anti-adipogenic activity in mouse 3T3-L1 cells assessed as change in lipid content at 10 uM measured at 3 to 5 days; format: functional, cell-based; settings: time 3-5 day
[13] = Toxicity in Golden Syrian hamster assessed as reduction in liver weight at 100 mg/kg, po administered for 7 days; format: organism-based, Mesocricetus auratus; settings: in vivo, 168 h, time 7 day
3T3-L1 [14] = assay: […] of Wnt/beta-catenin signalling in mouse 3T3-L1 cells assessed as increase in GSK3beta level at 10 uM by immunoblotting analysis; format: cell-based
3T3-L1 [15] = assay: Cytotoxicity against mouse 3T3-L1 cells assessed as cell viability at 20 uM incubated for 48 hrs by MTT assay; format: toxicity, cell-based; settings: 3t3-l1, 48 h
Syrian golden hamster [16] = assay: Anti-dyslipidemic activity in HFD-induced Golden Syrian hamster model assessed as decrease in eWAT accumulation at 100 mg/kg, po administered for 7 days; format: functional, organism-based; settings: Mesocricetus auratus, time 7.0 day
3T3-L1 [17] = assay: Anti-adipogenic activity in mouse 3T3-L1 cells assessed as increase in GATA2 mRNA expression by measuring fold change at 10 uM incubated for 16 to 24 hrs; format: functional; settings: time 16-24 hrs
3T3-L1 [18] = assay: Anti-adipogenic activity in mouse 3T3-L1 cells assessed as change in lipid content at 10 uM measured at 5 to 7 days; format: functional, cell-based; settings: time 5-7 day
3T3-L1 [19] = assay: Anti-adipogenic activity in mouse 3T3-L1 cells assessed as reduction in lipid accumulation at 10 uM measured at upto 3 days; format: functional, cell-based; settings: time <= 3.0 day
3T3-L1 [20] = assay: Anti-adipogenic activity in mouse 3T3-L1 cells assessed as suppression of adipogenesis at 20 uM measured for 72 hrs by oil red O staining based analysis; format: functional
3T3-L1 [21] = assay: Inhibition of adipogenesis in mouse 3T3-L1 cells assessed as downregulation of FASN expression at 10 uM measured at upto 7 days by immunoblotting analysis; format: functional, cell-based; settings: time <= 7.0 day
3T3-L1 [22] = assay: Inhibition of adipogenesis in mouse 3T3-L1 cells assessed as downregulation of PPARgamma expression at 10 uM measured at upto 5 days by immunoblotting analysis; format: functional, cell-based; settings: time <= 5.0 day
3T3-L1 [23] = assay: Inhibition of adipogenesis in mouse 3T3-L1 cells assessed as downregulation of PPARgamma expression at 10 uM measured at upto 3 days by immunoblotting analysis; format: functional, cell-based; settings: time <= 3.0 day
3T3-L1 [24] = assay: Anti-adipogenic activity in mouse 3T3-L1 cells assessed as suppression of adipogenesis at 1 uM by oil red O staining based analysis; format: functional, cell-based
[25] = Toxicity in Golden Syrian hamster assessed as reduction in LDL level in serum at 100 mg/kg, po administered for 7 days; format: organism-based, Mesocricetus auratus; settings: in vivo, 168 h, time 7 day
3T3-L1 [26] = assay: Anti-adipogenic activity in mouse 3T3-L1 cells assessed as increase in beta-catenin mRNA expression at 10 uM incubated for 16 to 24 hrs; format: functional, cell-based; settings: time 16-24 hrs
3T3-L1 [27] = assay: […] of Wnt/beta-catenin signalling in mouse 3T3-L1 cells assessed as increase in beta-catenin level at 10 uM by immunoblotting analysis; format: cell-based
3T3-L1 [28] = assay: Inhibition of adipogenesis in mouse 3T3-L1 cells assessed as downregulation of PPARgamma expression at 10 uM measured at upto 7 days by immunoblotting analysis; format: functional, cell-based; settings: time <= 7.0 day
3T3-L1 [29] = assay: Anti-adipogenic activity in mouse 3T3-L1 cells assessed as change in lipid content at 10 uM measured at 3 to 7 days; format: functional, cell-based; settings: time 3-7 day
3T3-L1 [30] = assay: Cytotoxicity against mouse 3T3-L1 cells assessed as cell viability upto 50 uM incubated for 48 hrs by MTT assay; format: toxicity, cell-based; settings: 3t3-l1, 48 h
[31] = Tmax in Golden Syrian hamster at 100 mg/kg, po measured upto 24 hrs by LC-MS/MS analysis; format: ADME, organism-based, Mesocricetus auratus; settings: in vivo
3T3-L1 [32] = assay: Inhibition of adipogenesis in mouse 3T3-L1 cells assessed as downregulation of FASN expression at 10 uM measured at upto 5 days by immunoblotting analysis; format: functional, cell-based; settings: time <= 5.0 day
3T3-L1 [33] = assay: Induction of cell cycle arrest in mouse 3T3-L1 cells assessed as reduction in CDK2 level at 10 uM incubated for 16 to 24 hrs by immunoblotting analysis; format: functional, cell-based; settings: time 16-24 hrs
3T3-L1 [34] = assay: Induction of cell cycle arrest in mouse 3T3-L1 cells assessed as reduction in number of cells at G1 phase at 10 uM incubated for 16 to 24 hrs by flow cytometry analysis; format: functional, cell-based; settings: time 16-24 hrs
3T3-L1 [35] = assay: Inhibition of adipogenesis in mouse 3T3-L1 cells assessed as downregulation of CEBPalpha expression at 10 uM measured at upto 7 days by immunoblotting analysis; format: functional, cell-based; settings: time <= 7.0 day
3T3-L1 [36] = assay: Anti-adipogenic activity in mouse 3T3-L1 cells assessed as reduction in lipid accumulation at 10 uM; format: functional
3T3-L1 [37] = assay: Inhibition of adipogenesis in mouse 3T3-L1 cells assessed as downregulation of CEBPalpha expression at 10 uM measured at upto 5 days by immunoblotting analysis; format: functional, cell-based; settings: time <= 5.0 day
3T3-L1 [38] = assay: Induction of cell cycle arrest in mouse 3T3-L1 cells assessed as reduction in percentage of cells at G1 phase at 10 uM incubated for 16 to 24 hrs by flow cytometry analysis; format: functional, cell-based; settings: time 16-24 hrs
3T3-L1 [39] = assay: Cytotoxicity against mouse 3T3-L1 cells assessed as cell viability at 30 uM incubated for 48 hrs by MTT assay; format: toxicity, cell-based; settings: 3t3-l1, 48 h
3T3-L1 [40] = assay: Inhibition of adipogenesis in mouse 3T3-L1 cells assessed as downregulation of FASN expression at 10 uM measured at upto 3 days by immunoblotting analysis; format: functional, cell-based; settings: time <= 3.0 day
3T3-L1 [41] = assay: Cytotoxicity against mouse 3T3-L1 cells assessed as cell viability upto 100 uM incubated for 48 hrs by MTT assay; format: toxicity, cell-based; settings: 3t3-l1, 48 h

Cc1ccc(/C=C/c2ccc(-c3cc(C(=O)O)c4cc(F)ccc4n3)cc2)cc1
active: inhibition (3T3-L1 [1]) | Activity (3T3-L1 [2]) | Activity (Syrian golden hamster [6]) | Activity (3T3-L1 [7]) | inhibition (3T3-L1 [8]) | Activity (3T3-L1 [12]) | inhibition (3T3-L1 [14]) | Activity (Syrian golden hamster [16]) | Activity (3T3-L1 [18]) | Activity (3T3-L1 [19]) | inhibition (3T3-L1 [21]) | inhibition (3T3-L1 [22]) | inhibition (3T3-L1 [23]) | Activity (3T3-L1 [24]) | Activity (3T3-L1 [26]) | inhibition (3T3-L1 [27]) | inhibition (3T3-L1 [28]) | Activity (3T3-L1 [29]) | inhibition (3T3-L1 [32]) | Activity (3T3-L1 [33]) | Activity (3T3-L1 [34]) | inhibition (3T3-L1 [35]) | inhibition (3T3-L1 [37]) | Activity (3T3-L1 [38]) | inhibition (3T3-L1 [40])
46.8 mL/min/kg: CL/F [10]
70%: Activity (3T3-L1 [20])
Toxic: Activity (3T3-L1 [39]) | Activity (3T3-L1 [41])
Non-toxic: Activity (3T3-L1 [3]) | Activity [9] | Activity [11] | Activity [13] | Activity (3T3-L1 [15]) | Activity [25] | Activity (3T3-L1 [30])
14.79 L/kg: Vd [5]
0.25 h: Tmax [31]
10: fold change (FC) (3T3-L1 [17])
~50%: inhibition at 10 µM (3T3-L1 [36])
2.89 h: MRT [4]

Source: ChEMBL document CHEMBL6114991, “Design, synthesis, and biological evaluation of novel quinoline carboxylic acid based styryl/alkyne hybrid molecule as a potent anti-adipogenic and antidyslipidemic agent via activation of Wnt/β-catenin pathway” (Eur J Med Chem, 2025)
